In the NIST ThermoML archive (doi:10.1021/je060333x):
Numbers after ± are expanded uncertainties.

Experiment: molar enthalpy of transition or fusion
Conditions: 352 K; Crystal; DSC

With `OCCCCCCCCCCCCO` [1,12-dihydroxydodecane] the “molar enthalpy of transition or fusion” value was 12.2 ± 0.454 kcal/mol.
